According to ChEMBL document CHEMBL6182831, “Thiazole-fused androstenone and ethisterone derivatives: potent β- and γ-actin cytoskeleton inhibitors to treat melanoma tumors” (RSC Med Chem, 2025):

Experiments:
Type in all cases: functional
SK-MEL-5 = assay: Cytotoxicity against human SK-MEL-5 cells assessed as inhibition of cell growth incubated for 24 hrs by resazurin staining based analysis; settings: SK-MEL-5, 24 h
LOX IMVI = assay: Cytotoxicity against human LOX IMVI cells assessed as inhibition of cell growth incubated for 24 hrs by resazurin staining based analysis
B16-F10 = assay: Cytotoxicity against mouse B16-F10 cells assessed as inhibition of cell growth incubated for 24 hrs by resazurin staining based analysis; settings: B16-F10, 24 h
SK-MEL-25 = assay: Cytotoxicity against human SK-MEL-25 cells assessed as inhibition of cell growth incubated for 24 hrs by resazurin staining based analysis; settings: SK-MEL-25, 24 h
SK-MEL-28 = assay: Cytotoxicity against human SK-MEL-28 cells assessed as inhibition of cell growth incubated for 24 hrs by resazurin staining based analysis; settings: SK-MEL-28, 24 h

| Structure (SMILES) | IC50 (SK-MEL-5) [µM] | IC50 (LOX IMVI) [µM] | IC50 (B16-F10) [µM] | IC50 (SK-MEL-25) [µM] | IC50 (SK-MEL-28) [µM] |
| --- | --- | --- | --- | --- | --- |
| C#C[C@]1(O)CC[C@H]2[C@@H]3CC=C4c5sc(Nc6ccccn6)nc5CC[C@]4(C)[C@H]3CC[C@@]21C | 2.6 | 7.5 | 7.6 | 4 | 3.4 |
| C[C@]12CCc3nc(Nc4ccccn4)sc3C1=CC[C@@H]1[C@@H]2CC[C@]2(C)C(=O)CC[C@@H]12 | 7.1 | 2.3 | 5.9 | 11.8 | 8.9 |
| Cc1ccc(Nc2nc3c(s2)C2=CC[C@@H]4[C@H](CC[C@]5(C)C(=O)CC[C@@H]45)[C@@]2(C)CC3)cc1 | 7.3 | 4.2 | 4.9 | 4.3 | 4 |
| C#C[C@]1(O)CC[C@H]2[C@@H]3CC=C4c5sc(Nc6cccc(Cl)n6)nc5CC[C@]4(C)[C@H]3CC[C@@]21C | 2.7 | 5.5 | 3.8 | 5.7 | 2.4 |
| C#C[C@]1(O)CC[C@H]2[C@@H]3CC=C4c5sc(-c6ccc(F)cc6)nc5CC[C@]4(C)[C@H]3CC[C@@]21C | > 20 | 15.6 | 13.9 | > 20 | > 20 |
| Cc1ccc(Nc2nc3c(s2)C2=CC[C@@H]4[C@H](CC[C@]5(C)C(=O)CC[C@@H]45)[C@@]2(C)CC3)c(C)c1 | 6.6 | 3.6 | 6.1 | 4.4 | 1.9 |
| C[C@]12CCc3nc(Nc4ncccn4)sc3C1=CC[C@@H]1[C@@H]2CC[C@]2(C)C(=O)CC[C@@H]12 | 1.3 | > 20 | 3 | 1.8 | > 20 |
| C#C[C@]1(O)CC[C@H]2[C@@H]3CC=C4c5sc(Nc6cc(OC)ccc6OC)nc5CC[C@]4(C)[C@H]3CC[C@@]21C | 3.5 | 2.4 | 7.2 | 3.4 | 5 |
| C#C[C@]1(O)CC[C@H]2[C@@H]3CC=C4c5sc(Nc6ccc(C)cn6)nc5CC[C@]4(C)[C@H]3CC[C@@]21C | 3.7 | 3.6 | 7.7 | 4.8 | 4.6 |
| C#C[C@]1(O)CC[C@H]2[C@@H]3CC=C4c5sc(N6CCN(C)CC6)nc5CC[C@]4(C)[C@H]3CC[C@@]21C | 2.6 | 7.4 | 2.8 | 2.8 | 2 |
| C[C@]12CCc3nc(Nc4ccccc4)sc3C1=CC[C@@H]1[C@@H]2CC[C@]2(C)C(=O)CC[C@@H]12 | 10.6 | 2.7 | 5.8 | 6.8 | 6.1 |
| C#C[C@]1(O)CC[C@H]2[C@@H]3CC=C4c5sc(Nc6ccc(C)c(Cl)c6)nc5CC[C@]4(C)[C@H]3CC[C@@]21C | 4.3 | 3.9 | 4.9 | 4.6 | 5.6 |
| C#C[C@]1(O)CC[C@H]2[C@@H]3CC=C4c5sc(-c6cccc(O)c6)nc5CC[C@]4(C)[C@H]3CC[C@@]21C | 3.5 | 4.1 | 2.9 | 6.6 | 6 |
| C[C@]12CCc3nc(Nc4ccc(OC(F)(F)F)cc4)sc3C1=CC[C@@H]1[C@@H]2CC[C@]2(C)C(=O)CC[C@@H]12 | > 20 | 9.3 | 11.7 | 12.5 | > 20 |
| C#C[C@]1(O)CC[C@H]2[C@@H]3CC=C4c5sc(Nc6cc(C)cc(C)n6)nc5CC[C@]4(C)[C@H]3CC[C@@]21C | 2.5 | 4.1 | 10.2 | 6.5 | 5.5 |
| C#C[C@]1(O)CC[C@H]2[C@@H]3CC=C4c5sc(Nc6ncccc6C)nc5CC[C@]4(C)[C@H]3CC[C@@]21C | 5.5 | 4.8 | 2.9 | > 20 | 2.4 |
| COc1ccc(Cl)cc1Nc1nc2c(s1)C1=CC[C@@H]3[C@H](CC[C@]4(C)C(=O)CC[C@@H]34)[C@@]1(C)CC2 | > 20 | 3 | 3.6 | > 20 | 4.8 |
| C[C@]12CCc3nc(Nc4ccc(F)cc4F)sc3C1=CC[C@@H]1[C@@H]2CC[C@]2(C)C(=O)CC[C@@H]12 | 11.5 | 2.8 | 5.5 | > 20 | 5.3 |
| C#C[C@]1(O)CC[C@H]2[C@@H]3CC=C4c5sc(Nc6cccc(C)n6)nc5CC[C@]4(C)[C@H]3CC[C@@]21C | 3.9 | 2.8 | 6.5 | 5.1 | 3 |

| Structure (SMILES) | IC50 (SK-MEL-5) [µM] | IC50 (LOX IMVI) [µM] | IC50 (B16-F10) [µM] | IC50 (SK-MEL-25) [µM] | IC50 (SK-MEL-28) [µM] |
| --- | --- | --- | --- | --- | --- |
| C#C[C@]1(O)CC[C@H]2[C@@H]3CC=C4c5sc(Nc6cccnc6)nc5CC[C@]4(C)[C@H]3CC[C@@]21C | 3 | 2.6 | 10.7 | 2.1 | 2.3 |
| C[C@]12CCc3nc(Nc4ccccc4F)sc3C1=CC[C@@H]1[C@@H]2CC[C@]2(C)C(=O)CC[C@@H]12 | > 20 | 6.7 | 5.4 | > 20 | 6.4 |
| C#C[C@]1(O)CC[C@H]2[C@@H]3CC=C4c5sc(-c6ccc(O)cc6)nc5CC[C@]4(C)[C@H]3CC[C@@]21C | 3.2 | 3.3 | 4.7 | 3.7 | 2.5 |
| Cc1cc(C)cc(Nc2nc3c(s2)C2=CC[C@@H]4[C@H](CC[C@]5(C)C(=O)CC[C@@H]45)[C@@]2(C)CC3)c1 | > 20 | 2.5 | 8 | 3.2 | 2.5 |
| COc1ccc(OC)c(Nc2nc3c(s2)C2=CC[C@@H]4[C@H](CC[C@]5(C)C(=O)CC[C@@H]45)[C@@]2(C)CC3)c1 | > 20 | 6.2 | 6.4 | > 20 | > 20 |
| C[C@]12CCc3nc(Nc4ccc(F)cc4)sc3C1=CC[C@@H]1[C@@H]2CC[C@]2(C)C(=O)CC[C@@H]12 | 6.4 | 1.8 | 4.5 | 1.4 | 3.4 |
| C#C[C@]1(O)CC[C@H]2[C@@H]3CC=C4c5sc(-c6cccc(F)c6)nc5CC[C@]4(C)[C@H]3CC[C@@]21C | 20 | 15.3 | 8.5 | > 20 | 14 |
| C#C[C@]1(O)CC[C@H]2[C@@H]3CC=C4c5sc(-c6ccc7c(c6)OCO7)nc5CC[C@]4(C)[C@H]3CC[C@@]21C | 4.9 | > 20 | 13 | 4.2 | 6.1 |
| C#C[C@]1(O)CC[C@H]2[C@@H]3CC=C4c5sc(Nc6cc(Cl)ccn6)nc5CC[C@]4(C)[C@H]3CC[C@@]21C | 3.6 | 3 | 3.8 | 4.4 | 2.8 |
| C#C[C@]1(O)CC[C@H]2[C@@H]3CC=C4c5sc(Nc6cc(OC)ccc6Cl)nc5CC[C@]4(C)[C@H]3CC[C@@]21C | 4.8 | 3.2 | 9.7 | 3.1 | 3.4 |
| C[C@]12CCc3nc(NCCc4ccccc4)sc3C1=CC[C@@H]1[C@@H]2CC[C@]2(C)C(=O)CC[C@@H]12 | 5.2 | 9 | 6.1 | > 20 | 5.4 |
| C#C[C@]1(O)CC[C@H]2[C@@H]3CC=C4c5sc(Nc6ccc(F)cn6)nc5CC[C@]4(C)[C@H]3CC[C@@]21C | 2.8 | 5.4 | 3.1 | 3.2 | 3.5 |
| C#C[C@]1(O)CC[C@H]2[C@@H]3CC=C4c5sc(Nc6cc(C)cc(C)c6)nc5CC[C@]4(C)[C@H]3CC[C@@]21C | 3.9 | 3.6 | 5.8 | 3.8 | 5 |
| C#C[C@]1(O)CC[C@H]2[C@@H]3CC=C4c5sc(Nc6ncccn6)nc5CC[C@]4(C)[C@H]3CC[C@@]21C | 4.9 | 7.8 | 13.5 | 5.7 | 2.8 |
| C#C[C@]1(O)CC[C@H]2[C@@H]3CC=C4c5sc(Nc6ccc(Cl)cn6)nc5CC[C@]4(C)[C@H]3CC[C@@]21C | 4.8 | 5.4 | 3 | 8.3 | 3.7 |
| C[C@]12CCc3nc(Nc4cccc(F)c4)sc3C1=CC[C@@H]1[C@@H]2CC[C@]2(C)C(=O)CC[C@@H]12 | 6.7 | 1.6 | 2.7 | 4.2 | 4.5 |
| C[C@]12CCc3nc(Nc4cccc(O)c4)sc3C1=CC[C@@H]1[C@@H]2CC[C@]2(C)C(=O)CC[C@@H]12 | > 20 | 2.2 | 6.7 | 4.8 | 12.6 |
| C#C[C@]1(O)CC[C@H]2[C@@H]3CC=C4c5sc(Nc6ccncc6)nc5CC[C@]4(C)[C@H]3CC[C@@]21C | 2.9 | 2.5 | 6.7 | 7.9 | 4.2 |
| C#C[C@]1(O)CC[C@H]2[C@@H]3CC=C4c5sc(Nc6ccc(OC)cc6OC)nc5CC[C@]4(C)[C@H]3CC[C@@]21C | 3 | 3.4 | 7.7 | 3.3 | 4.7 |
